Source: PMC10761119, “Phosphorylation-state dependent intraneuronal sorting of Aβ differentially impairs autophagy and the endo-lysosomal system” (Autophagy, 2023)
Each block holds one substance with its values, some of them ahead of it.

Legend:
primary cortical neurons [1] = assay: ELISA of Aβ levels in the treatment media; format: cell-based, mouse; settings: 4 hours incubation, 500 nM, neurobasal FCS- PS- media, versus amount before incubation, n = 9, N = 3
Method: Primary cortical neurons (DIV14) were treated with 500 nM of monomeric/unaggregated Aβ variants ([…]β and p-[…]β) in neurobasal, FCS^- PS^- media. SH-SY5Y cells seeded on D1, were treated with Aβ variants (1 μM) on D3 in DMEM/F-12 media without serum and antibiotics. Control treatment included treatment with equal volume of 10 mM NaOH solution used for preparing the Aβ stock solutions, in respective cell culture medium. SH-SY5Y cells, after 16 h of transient expression of the reporter constructs, were treated with different Aβ variants, autophagy modulator substrates and respective controls in DMEM/F-12, FCS^- PS^- media for the mentioned time points. […] Cells were either collected by scraping using a cell-scraper or fixed with 4% PFA-PBS for 15 min at RT, for further immunocytochemistry experiments. Collected treatment media was centrifuged at 1000 g for 5 min, pellet discarded and supernatant frozen at -20°C until further usage. Plates (ThermoFisher Scientific, 44-2404-21) were coated with either […]6) or anti-pAβ antibodies ([…]11 and […]) as capture antibody at RT for 2 h and blocked with 1 mg/ml BSA solution in PBS. […] Multiple readings were recorded for a single well and averaged. In each experiment, each sample was analyzed in technical duplicate/triplicate wells as indicated and average values from an independent experiment are presented (Figures 1E, 3G, SA-D and Table S2).

[2] = cited from earlier work
primary cortical neurons [3] = assay: Western immunoblot of Aβ aggregation during incubation with neurons; format: cell-based, mouse; settings: Aβ 500 nM, 4 h; NuPAGE and western immunoblot with 82E1; compared to npAβ or p-Ser26Aβ
Method: Cells were collected by scraping and mechanically homogenized in hypotonic D buffer (10 mM Tris-HCl, pH 7.4, 10 mM NaCl, 0.1 mM EGTA, 25 mM glycerol 2-phosphate, 1 mM DTT) containing protease and phosphatase inhibitors by repeated suspension through a 23 G × 1” needle. Post-nuclear supernatant (PNS) was collected by centrifugation of the mechanically homogenized cellular material at 2,000 g for 5 min. The pellet was the nuclear material. […]
For different cellular fractions prepared as described earlier, the protein content was estimated using the standard Pierce™ BCA protein assay kit (ThermoFisher Scientific, 23225). […] Blots were developed either by enhanced chemiluminescence (ECL) or fluorescence imaging. […] Signals were detected with an ECL imager (Bio-Rad, Germany). For fluorescence detection, blots were imaged on a Li-COR imaging station (Li-COR Biosciences, Germany). […] Quantification of band signals was done using ImageJ – Gel processing module or Image Studio processing software (LiCOR Biosciences, Germany). All samples were analyzed in biological duplicates in two or three independent experiments as indicated in the respective figure legends. […]

Levels of Aβ in the treatment media after incubation with primary neurons (primary cortical neurons [1]): significantly decreased
Substance: non-phosphorylated amyloid-β [npAβ, reference compound]

Substance: amyloid-β phosphorylated at serine residue 26 [p-Ser26Aβ]
Assemblies formed (effect of Ser26 phosphorylation) [2]: soluble oligomeric assemblies, rather than fibrillar assemblies

SDS resistant aggregates formed during the incubation with neurons (primary cortical neurons [3]): forms more SDS resistant aggregates
Substance: amyloid-β phosphorylated at serine residue 8 [p-Ser8Aβ]
